Experimental data from patent US6120997A, “Nucleic acid binders having an hydroxyamine motif” (The Scripps Research Institute, priority 1998, dated 2000).
pKd: −log10 of the molar value. “Also recorded” adds a separate entry of the source. *1 amine or outer side, *2 acyl side, *3 side chain or, on linkers, in order; H or OH if unused. Where a SMILES comes first, the peptide text is derived from it. Bridges are numbered along the chain shown (N, C = ends). [ ]: non-standard residue; d: D form. The star is where a group is joined. X2 = NC1=N[C@@H]([C@H](N[*:1])C(=O)[*:2])C[C@H](O)N1; ΔAla(Z-3-ureido) = NC(=O)N/C=C(\N)C(=O)O; X1 = NCC[C@@H](O)[C@H](N)CC(=O)*; Dap = NC[C@H](N)C(=O)O

Tests used:
[1] = NMR dilution experiments of 1:1 salt complexes in DMSO-d6 (phosphodiester recognition); assay type: binding
Experimental: [a] NMR dilution experiments with the preformed 1:1 salt complexes were performed in DMSO-d6 at […]; [b] calculated maximum shift at full complexation in ppm.
In order to determine binding constants we prepared defined 1:1 salt complexes and measured their dissociation upon stepwise dilution in [D6 ]DMSO by following the shifts of NH and OH resonances. The chemical shift values of the totally uncomplexed state (o) and the fully complexed state (n) and the stability constant Ka were subsequently determined by curve fitting. […] In all cases, data could be fitted to a 1:1 binding isotherm. […] This order mirrors the order of binding affinities and is consistent with the interpretation that differential involvement of the hydroxyl group in hydrogen bonding provides for the energetic differences in complexation.

AS-wt = assay: SPR binding of aminoglycosides to decoding region A-site model AS-wt; parameters: species or system E. coli; conditions: for RNA binding, affinity or specificity for AS-wt (in words): Example 4
Experimental: The RNA binding properties of 100-800 were analyzed using a surface plasmon resonance based assay that was recently developed in these laboratories. This assay allows the determination of both affinity and specificity of small molecule-RNA interactions. For the analysis, the compounds were injected over a matrix containing RNA that was immobilized through a biotin tag and the equilibrium binding values were recorded at various concentrations.
Non-linear curve fitting was then used to determine the values of the dissociation constants (KD). The specificity of binding, i.e. the ability to discriminate between different RNA sequences was evaluated by comparing the binding to the target sequence (AS-wt) and the negative control (AS-U1495A). The ratio of KD(AS-U1495A) to KD(AS-wt) was taken to be a representation of the specificity of the binding event.
For the quantitative measurement of aminoglycoside binding to these sequences, we utilized our recently developed SPR-based assay. Biotinylated derivatives of all sequences were prepared by in vitro transcription in the presence of guanosine 5'-monophosphorothioate followed by alkylation with a biotin iodoacetamide derivative. The RNA conjugates were then immobilized onto streptavidin coated SPR-sensorchips for analysis.
In the same manner as illustrated for paromomycin, a panel of aminoglycosides was screened and the results are compiled in the table of FIGS. 46 and 47. In addition to the naturally occuring aminoglycoside antibiotics, some of the compounds in FIG. 46 are synthetically derived, unnatural aminoglycosides. The number of independent determinations for each dissociation constant ranged from 1-3. […] All data were recorded under near physiological salt conditions (HBS-buffer: 150 mM NaCl, 10 mM HEPES, pH7.4, 3.4 mM EDTA) unless noted otherwise. Data points were taken at concentrations ranging from […]. Below this concentration range, surface transport limitations prevent the attainment of equilibrium.
Plasmon resonance and antimicrobial testing for Example 4. Synthesis of the biotinylated RNA and surface plasmon resonance detected binding experiments were performed as described vida supra. Solution conditions: 150 mM NaCl, 10 mM HEPES (pH 7.4), 3.4 mM EDTA. KD determination from the binding curves.
The fitting routine of the program kaleidagraph was used for all calculations. The starting values for a and b were set to 1 and 0 respectively. The number of KD values used in the fitting was adjusted depending on the observed range of equivalents bound but generally varied from 3 to 4.
General Procedures for SPR Binding Studies done in Example 5. Samples were prepared by serial dilutions from stock solutions in RNase free microfuge tubes (Ambion) and were centrifuged at 14000 rpm for degassing. Unless otherwise noted, all binding studies were carried out using HBS buffer (Pharmacia Biosensor AB) which was used as obtained. All procedures for binding studies were automated as methods using repetitive cycles of sample injection and regeneration. Typically, buffer was injected in the first two cycles to establish a stable baseline value. Samples were injected at a flowrate of […] using either the KINJECT command. All aminoglycoside samples were injected from autoclaved 7 mm plastic vials that were capped with pierceable plastic crimp caps. To minimize carry over, samples were injected in order of increasing concentration. The running buffer was identical to the injection buffer. Expected values for the equilibrium response of one equivalent of analyte were calculated from the relative molecular weight of the analyte and the immobilized RNA ligand in each flowcells and adjusted with a correction factor of 0.76 which arises from the different molar refractive indices of RNA and the analyte. […]

[2] = tested on: Escherichia coli (ATCC 25922); assay: minimum inhibitory concentration, broth dilution technique; assay type: cell-based; conditions: E. coli, liquid culture
From the text: We reasoned that this modification would provide the cleanest test for probing the ionic contribution, since hydrogen bond donor abilities, electronegativity and steric demand are similar for both functional groups. In order to learn how well the model system correlates with in vivo activity, we checked the new compounds for antibacterial activity against three bacterial strains using the disc method (Kirby-Bauer technique). The minimum inhibitory concentrations (MICs) of the compounds were then determined using the broth dilution technique. For antibiotic testing protocols, see: (a) Disk testing protocols: Phillips, I.; Williams, D., in Laboratory Methods in Antimicrobial Chemotherapy, Garrod, L. (ed.) Churchill Livingstone Press: Edinburgh, 1978, pp. 3-30. (b) MIC determination: Waterworth, P. M., in Laboratory Methods in Antimicrobial Chemotherapy, Garrod, L. (ed.) Churchill Livingstone Press: Edinburgh, 1978, pp. 31-40; Barry, A. L. The Antimicrobic Susceptibility Test: Principles and Practice, Lea and Febiger: Philadelphia (1976). (c) Standards: Lorian, V., Antibiotics in Laboratory Medicine (2nd. ed.), Williams and Wilkins: Baltimore, 1986.
FIG. 39A gives the zone diameters measured for the three bacterial strains. The zone diameters measured for the strains with known antibiotics are well within the accepted limits. […] It is worth noting that some testing protocols recommend overnight growth of the cultures, rather than the minimum time required to obtain good growth of the control. MIC values were tested for several of the control antibiotics using overnight growth, and the MIC values observed were 2-4× greater than those observed for 4-6 hour growth.
Minimal Inhibitory Concentration (MIC) testing. E. coli ATCC 25922 was grown in Mueller-Hinton broth (cation-adjusted, BBL Microbiology Systems) to an optical density of approx. 0.5 (absorbance read at 600 nm), then diluted to an OD600 of 0.1. Samples of antibiotic were prepared in Mueller-Hinton broth, typically a series of 2-fold dilutions from […]. […] The absorbance of each sample was read (1=600 nm), and MIC was considered to be the lowest antibiotic concentration at which the absorbance was less than 1% of the no-antibiotic control.

Neo16-bd = assay: SPR binding of aminoglycosides to Neo16-bd aptamer; conditions: HBS-buffer; read-out: Kd, Neo16bd
Experimental: Conditions: 10 mM HEPES (pH 7.4), 0.1 mM EDTA and NaCl as indicated.
The binding of aminoglycosides to RNA is likely to involve substantial ionic contributions and therefore should be strongly influenced by competing buffer ions. […] We studied the salt dependence of neomycin B binding to RBE3, RBE3-neg and Neo16-bd (FIG. 14) by varying the concentration of NaCl included in the injection buffer (10 mM HEPES, pH 7.4, 0.1 mM EDTA). […] This neomycin binding motif was obtained by in vitro selection under conditions of high ionic strength.
To further improve our understanding of specific aminoglycoside recognition, we have also included an artificial aminoglycoside receptor that was evolved in vitro to recognize an aminoglycoside. A number of RNA aptamers for small molecules have been reported in recent years. Among them are aptamers that recognize the aminoglycosides tobramycin, lividomycin and kanamycin.
For comparison, the corresponding values for AS-wt are also included.
General Procedures for SPR Binding Studies done in Example 5. Samples were prepared by serial dilutions from stock solutions in RNase free microfuge tubes (Ambion) and were centrifuged at 14000 rpm for degassing. Unless otherwise noted, all binding studies were carried out using HBS buffer (Pharmacia Biosensor AB) which was used as obtained. All procedures for binding studies were automated as methods using repetitive cycles of sample injection and regeneration. Typically, buffer was injected in the first two cycles to establish a stable baseline value. Samples were injected at a flowrate of […] using either the KINJECT command. All aminoglycoside samples were injected from autoclaved 7 mm plastic vials that were capped with pierceable plastic crimp caps. To minimize carry over, samples were injected in order of increasing concentration. The running buffer was identical to the injection buffer.

[3] = tested on: bacterial protein synthesis; conditions: cited from earlier work
wt-RRE-II = assay: SPR binding of aminoglycosides to wt-RRE-II; parameters: species or system HIV-1; conditions: comparison of aminoglycosides
Experimental: FIGS. 9A and 9B illustrate neomycin B binding to RBE3, RBE3-neg and wt-RRE-II. (A) Semilogarithmic plot. […] Conditions: pH 7.0, 10 mM HEPES, 150 mM NaCl, 0.1 mM EDTA, […].
FIGS. 10A and 10B illustrate paromomycin binding to RBE3, RBE3-neg and wt-RRE-II. (A) Semilogarithmic plot; the dashed line indicates the binding of neomycin B to wt-RRE-II for comparison (B) Scatchard plot. […] Conditions: pH 7.0, 10 mM HEPES, 150 mM NaCl, 0.1 mM EDTA, […].
FIG. 11 illustrates the kinetic stability of wt-RRE-II complexes with neomycin B vs. paromomycin. […] Data points were taken after 1 min of dissociation.
Binding of the aminoglycoside to all three RNA oligonucleotides is observed starting in the low nanomolar concentration range and is non-saturable over the concentration range investigated. […] The high degree of non-specific binding is not surprising considering that aminoglycosides are highly charged polycations that tend to associate nonspecifically with the polyanionic phosphate backbone of RNA. […] Data points corresponding to 0.5 or more equivalents of neomycin B represent equilibrium values and can be analyzed with respect to stoichiometry and affinity of aminoglycoside binding. […] Both sequences bind one molecule of neomycin B with submicromolar affinity followed by weaker association with several additional equivalents of the antibiotic.
Samples were prepared by serial dilutions from stock solutions in RNase free microfuge tubes (Ambion) and were centrifuged at 14000 rpm for degassing. Buffers were filtered through sterile 0.2 &m nylon membranes (Nalgene) under vacuum, except for BIA certified HBS buffer (Pharmacia Biosensor AB) which was used as obtained. All procedures for binding studies were automated as methods using repetitive cycles of sample injection and regeneration. Typically, buffer was injected in the first two cycles to establish a stable baseline value. Samples were injected at a flowrate of 5-10 &L/min using either the KINJECT or the COINJECT command. All aminoglycoside and Rev27 samples were injected from autoclaved 7 mm plastic vials that were capped with pierceable plastic crimp caps. To minimize carry over, samples were injected in order of increasing concentration. The running buffer was identical to the injection buffer, except for the salt dependence study where a single running buffer was used for all injections. Expected values for the equilibrium response of one equivalent of analyte were calculated from the relative molecular weight of the analyte and the immobilized RNA ligand in each flowcells. These values were adjusted by multiplying with a factor of 0.8 or 0.57 for Rev27 or aminoglycosides respectively. These factors arise from the different molar refractive indices of RNA and the analyte and were determined from the Scatchard plot x-axis intercepts of the 1:1 binding isotherms for Rev27 and neomycin B.
Binding Studies with Aminoglycosides.
Neomycin B sulfate (Fluka) was converted to the free base by passing it through Amberlite IRA 400 (OH-- form) and purified by ion exchange chromatography on Dowex 1-X2 100 to remove neomycin C; the purity of neomycin B was verified by NMR in D2 O. Paromomycin sulfate was obtained from Sigma and used as received. Samples were prepared by dilution from 10 mM stock solutions in injection buffer (10 mM HEPES, pH 7.4, 150 mM NaCl, 3.4 mM EDTA). Data points were taken after an association phase of 30 min. A 2 min regeneration pulse of 150 mM Na2 SO4 in injection buffer was used between injections. […]

| SMILES | RNA binding, affinity or specificity for AS-wt (in words) (AS-wt) | antibacterial activity / MIC compared with neomycin B (in words) [2] | pKd (Neo16-bd) | effect on bacterial protein synthesis (in words) [3] | also measured |
| --- | --- | --- | --- | --- | --- |
| CO[C@H]1O[C@H](CN)[C@@H](O)[C@H](OCc2ccccc2)[C@H]1OCc1ccccc1 [Compound 2] |  |  |  |  | dimethylphosphate binding affinity (in words) [1]: higher affinity than bicyclic guanidine 6; selectivity for dimethylphosphate over chloride [1]: 10 fold |
| NCCO[C@H]1[C@@H](O)[C@H](O[C@@H]2[C@@H](O)[C@H](N)C[C@H](N)[C@H]2O[C@H]2O[C@H](CN)[C@@H](O)[C@H](O)[C@H]2N)O[C@@H]1CO [Compound 500, 3"-O-Ethyl-2-amino ribostamycin] | binding affinity goes up by an order of magnitude but specificity is unaffected; also recorded: significantly lower binding affinities toward the AS wt RNA than neomycin | very nearly the same anti microbial activity as neomycin B | > 8.00 |  |  |
| NCCCNCCO[C@H]1[C@@H](O)[C@H](O[C@@H]2[C@@H](O)[C@H](N)C[C@H](N)[C@H]2O[C@H]2O[C@H](CN)[C@@H](O)[C@H](O)[C@H]2N)O[C@@H]1CO [Compound 600, 3"-O-2-N-(3-propylamino)-ethylamino ribostamycin] | diminishing returns on the affinity without affecting the specificity; also recorded: significantly lower binding affinities toward the AS wt RNA than neomycin | very nearly the same anti microbial activity as neomycin B | > 8.00 |  |  |
| CN(CC(=O)O)NC(=O)C[C@H](N)C[C@@H](O)CN [Negamycin] |  |  |  | induces miscoding during translation |  |
| [H]/N=C(/N)N[C@H]1[C@H](O)[C@@H](O)[C@H](O[C@@H]2O[C@@H](C)[C@](O)(C=O)[C@H]2O[C@@H]2O[C@@H](CO)[C@H](O)[C@@H](O)[C@@H]2NC)[C@@H](N/C(N)=N\[H])[C@@H]1O [Streptomycin] | much reduced binding affinity and no specificity |  |  |  | specificity for AS-wt over negative controls (in words) (AS-wt; Example 5, HBS-buffer): does not show any specificity for AS-wt; relative binding affinity for wt-RRE-II (in words) (wt-RRE-II): weakest |
| NCC[C@@H](O)[C@H](N)CC(=O)N[C@H]1CNC(=O)[C@H]([C@H]2C[C@H](O)NC(N)=N2)NC(=O)/C(=C/NC(N)=O)NC(=O)[C@H](CO)NC(=O)[C@H](CO)NC1=O [Tuberactinomycin A] (X1-[Dap]SS[ΔAla(Z-3-ureido)][X2]; lactam 1-C) |  |  |  | inhibits both initiation and elongation steps of bacterial protein synthesis |  |
